{"source": "patent US20030050470A1", "about": "“Biomarkers and targets for diagnosis, prognosis and management of prostate disease, bladder and breast cancer” (UroCor, Inc., priority 1996, published 2003)", "key": {"[1]": {"tested_on": "PSMA messenger RNA in LNCAP prostate cancer cell line", "conditions": "LNCAP cells after exposure (Israeli et al., 1994); cited from earlier work"}, "[2]": {"tested_on": "UC 28 gene message in LnCaP cells", "conditions": "charcoal stripped serum 48 hours, DHT 0, 0.1, 1, 10 and 100 nM for 24 hours, normalized to β-actin", "experimental": "FIG. 17. […] LnCaP cells were cultured in RPMI-1640 with 10% charcoal stripped serum for 48 hours prior to treatment. The cells were incubated in DHT for 24 hours. […] RT-PCR message was normalized to β-actin.\nSince hormones regulate both prostate and mammary glands, the possibility that expression of this gene is modified by androgen was examined."}, "B 16 melanoma cell line": {"tested_on": "B 16 melanoma cell line", "conditions": "B 16 melanoma cell line (Rieber & Rieber, 1994); cited from earlier work"}, "[3]": {"tested_on": "cyclin A in DU-145 prostate carcinoma cell line", "conditions": "DU-145 cells (Qiao et al., 1994); cited from earlier work"}}, "note": "Read-outs that look alike come from different tables or passages of the source.", "data": [{"smiles": "C[C@]12CCC(=O)C[C@@H]1CC[C@@H]1[C@@H]2CC[C@]2(C)[C@@H](O)CC[C@@H]12", "note": "[DHT, dihydrotestosterone]", "values": [{"measurement": "PSMA mRNA down-regulation", "setting": "[1]", "result": "8-10 fold"}, {"measurement": "UC 28 gene expression (UC 28 message level by RT-PCR)", "setting": "[2]", "result": "increasing UC 28 message level"}, {"measurement": "UC 28 gene expression (UC 28 message level by RT-PCR)", "setting": "[2]; listed as dihydrotestosterone", "result": "stimulated by dihydrotestosterone (DHT) in a time and dosage-dependent manner"}]}, {"smiles": "N[C@@H](Cc1ccc(O)cc1)C(=O)O", "note": "[L-tyrosine]", "values": [{"measurement": "cyclin A activity", "setting": "B 16 melanoma cell line", "result": "decrease in cyclin A activity"}, {"measurement": "melanogenesis and replicative senescence", "setting": "B 16 melanoma cell line", "result": "promote increased melanogenesis and replicative senescence"}]}, {"smiles": "Cc1ccc(C(=O)Nc2ccc(S(=O)(=O)O)c3cc(S(=O)(=O)O)cc(S(=O)(=O)O)c23)cc1NC(=O)c1cccc(NC(=O)Nc2cccc(C(=O)Nc3cc(C(=O)Nc4ccc(S(=O)(=O)O)c5cc(S(=O)(=O)O)cc(S(=O)(=O)O)c45)ccc3C)c2)c1", "note": "[Suramin]", "values": [{"measurement": "expression of cyclin A", "setting": "[3]", "result": "reduces the expression of cyclin A"}]}]}
